Our source for the IC50 values is patent US10717733B2, “Haloallylamine indole and azaindole derivative inhibitors of lysyl oxidases and uses thereof” (PHARMAXIS LTD., priority 2016, dated 2020).

pIC50: −log10 of the molar value. Structures can show the parent of a compound that is named as a salt. Bounds are passed on as bounds.

Assay type in all cases: biochemical
Assay [1] addresses Bovine LOX (Bos taurus (Bovine), UniProt P33072). Nature of the assay: LOX inhibition, peroxidase-coupled Amplex Red amine oxidase assay. The conditions noted are these: 30 min preincubation at 37° C., putrescine substrate. A digest of the protocol:
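Bovine LOX in 1.2 M urea, 50 mM sodium borate pH 8.2 with 1 μM mofegiline and 0.5 mM pargyline; putrescine at twice KM (e.g. 20 mM for LOX) with Amplex Red/HRP. Fluorescence (ex 565/em 590 nm) read kinetically over 30 min at 37–45 °C; IC50 from slopes.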

Assay [2] addresses Human LOXL2 (Homo sapiens (Human), UniProt Q9Y4K0). Nature of the assay: LOXL2 inhibition, peroxidase-coupled Amplex Red amine oxidase assay. Conditions: 30 min preincubation at 37° C., putrescine substrate. In a few lines: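 Enzyme in 1.2 M urea, 50 mM sodium borate pH 8.2 with 1 μM mofegiline and 0.5 mM pargyline, preincubated 30 min at 37° C with compound (11-point CRC). Putrescine at twice KM (10 mM for LOXL2) with Amplex Red/HRP; fluorescence (ex 565, em 590) read kinetically 30 min; IC50 from slopes.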

In assay [3] the target is human recombinant SSAO/VAP-1 (Homo sapiens (Human), UniProt Q16853). Nature of the assay: Inhibition of human recombinant SSAO/VAP-1 amine oxidase activity. Conditions: 30 min preincubation at 37° C., 600 μM benzylamine. A digest of the protocol: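 Purified SSAO/VAP-1 (residues 34-763, expressed in CHO Lec 8 cells; 0.25 μg/mL) preincubated 30 min at 37° C with compound in 0.1 M sodium phosphate pH 7.4. Reaction mix of 600 μM benzylamine, 120 μM Amplex Red and 1.5 U/mL HRP added; fluorescence (ex 565/em 590 nm) read every 2.5 min for 30 min; IC50 from kinetic slopes over 4-11 point curves.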
Sequence of human recombinant SSAO/VAP-1 (Q16853 34-763): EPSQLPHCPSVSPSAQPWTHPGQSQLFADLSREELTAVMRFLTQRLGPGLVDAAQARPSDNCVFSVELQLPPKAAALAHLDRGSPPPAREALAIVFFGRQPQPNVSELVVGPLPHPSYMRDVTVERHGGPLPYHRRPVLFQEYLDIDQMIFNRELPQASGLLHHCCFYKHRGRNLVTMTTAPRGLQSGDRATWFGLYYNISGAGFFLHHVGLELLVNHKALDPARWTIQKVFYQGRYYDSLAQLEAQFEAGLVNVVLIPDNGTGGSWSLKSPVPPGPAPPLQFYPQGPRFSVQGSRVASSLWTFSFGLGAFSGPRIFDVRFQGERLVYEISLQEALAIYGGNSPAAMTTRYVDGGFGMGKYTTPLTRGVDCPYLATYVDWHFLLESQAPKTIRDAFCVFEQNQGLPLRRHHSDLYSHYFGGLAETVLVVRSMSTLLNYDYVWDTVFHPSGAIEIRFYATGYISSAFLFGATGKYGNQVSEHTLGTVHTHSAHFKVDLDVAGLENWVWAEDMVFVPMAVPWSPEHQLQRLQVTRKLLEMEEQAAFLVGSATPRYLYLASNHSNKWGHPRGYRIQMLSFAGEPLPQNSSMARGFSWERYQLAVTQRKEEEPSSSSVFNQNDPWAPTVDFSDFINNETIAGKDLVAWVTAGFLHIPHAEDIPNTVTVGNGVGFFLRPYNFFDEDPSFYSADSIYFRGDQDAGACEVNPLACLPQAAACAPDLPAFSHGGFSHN

Assay [4] concerns the target Recombinant human MAO-B (Homo sapiens (Human), UniProt P27338). Description: Inhibition of human recombinant MAO-B. Conditions: benzylamine 100 μM. In a few lines:
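Recombinant human MAO-B used as enzyme source (0.06 mg/mL, stated concentration). Run as for the human SSAO/VAP-1 assay, except benzylamine substrate at 100 μM.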

Sequence of Recombinant human MAO-B (P27338 whole entry): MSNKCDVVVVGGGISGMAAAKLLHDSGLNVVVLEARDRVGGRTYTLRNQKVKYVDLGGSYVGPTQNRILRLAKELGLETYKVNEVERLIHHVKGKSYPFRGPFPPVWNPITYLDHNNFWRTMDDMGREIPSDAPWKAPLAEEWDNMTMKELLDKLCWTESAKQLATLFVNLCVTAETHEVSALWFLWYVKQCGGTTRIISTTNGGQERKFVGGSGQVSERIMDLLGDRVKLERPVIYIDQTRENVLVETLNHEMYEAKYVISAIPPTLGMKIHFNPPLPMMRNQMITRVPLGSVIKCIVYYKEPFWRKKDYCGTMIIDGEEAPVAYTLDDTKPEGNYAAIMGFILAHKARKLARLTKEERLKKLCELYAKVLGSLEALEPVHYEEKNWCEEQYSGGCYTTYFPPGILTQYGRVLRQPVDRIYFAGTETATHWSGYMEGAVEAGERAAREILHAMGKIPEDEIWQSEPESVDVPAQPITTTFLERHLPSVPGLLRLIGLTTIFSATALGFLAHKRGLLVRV
Sequence of Bovine LOX (P33072 170-418): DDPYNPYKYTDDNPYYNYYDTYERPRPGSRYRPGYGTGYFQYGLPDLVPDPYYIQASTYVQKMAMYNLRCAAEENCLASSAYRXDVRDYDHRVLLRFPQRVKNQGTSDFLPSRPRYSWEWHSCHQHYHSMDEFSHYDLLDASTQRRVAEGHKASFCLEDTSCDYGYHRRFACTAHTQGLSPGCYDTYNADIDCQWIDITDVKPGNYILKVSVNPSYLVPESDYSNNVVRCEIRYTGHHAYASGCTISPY
Sequence of Human LOXL2 (Q9Y4K0 26-774): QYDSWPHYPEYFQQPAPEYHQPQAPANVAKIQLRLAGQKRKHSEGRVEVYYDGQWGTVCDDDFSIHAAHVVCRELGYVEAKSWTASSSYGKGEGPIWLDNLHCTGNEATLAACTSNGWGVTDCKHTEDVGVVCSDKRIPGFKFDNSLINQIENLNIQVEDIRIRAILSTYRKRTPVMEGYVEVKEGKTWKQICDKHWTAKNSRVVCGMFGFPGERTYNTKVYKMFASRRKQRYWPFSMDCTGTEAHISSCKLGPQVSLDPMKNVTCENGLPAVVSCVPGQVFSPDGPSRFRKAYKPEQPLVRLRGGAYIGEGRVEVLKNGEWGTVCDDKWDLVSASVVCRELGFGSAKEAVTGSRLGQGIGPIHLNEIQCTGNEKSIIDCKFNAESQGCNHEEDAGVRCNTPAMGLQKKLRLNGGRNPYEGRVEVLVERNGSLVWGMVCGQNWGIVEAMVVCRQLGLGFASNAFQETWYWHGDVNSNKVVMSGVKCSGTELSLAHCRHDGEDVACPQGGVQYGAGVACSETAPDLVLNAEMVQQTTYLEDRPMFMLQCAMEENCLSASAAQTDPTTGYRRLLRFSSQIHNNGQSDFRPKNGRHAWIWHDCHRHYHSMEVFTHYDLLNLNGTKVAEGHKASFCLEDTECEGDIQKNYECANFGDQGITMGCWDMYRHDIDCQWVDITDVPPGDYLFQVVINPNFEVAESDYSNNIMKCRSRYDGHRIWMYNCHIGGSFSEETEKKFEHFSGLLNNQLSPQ

Turning to `Cc1c(-c2cccc(S(C)(=O)=O)c2)c2cc(C(=O)O)ccc2n1C/C(F)=C/CN` [Compound 14, (Z)-1-(4-amino-2-fluorobut-2-en-1-yl)-2-methyl-3-(3-(methylsulfonyl)phenyl)-1H-indole-5-carboxylic acid], the pIC50 (usually the negative decadic logarithm of the IC50, by convention in mol/L) was less than 6.52 in assay [1], greater than 6.52 in assay [2], less than 5.52 in assay [3] and less than 5.52 in assay [4].
Take `CCOC(=O)c1ccc2c(c1)c(-c1cccc(Cl)c1)c(C)n2C/C(F)=C/CN` [Compound 27, ethyl (Z)-1-(4-amino-2-fluorobut-2-en-1-yl)-3-(3-chlorophenyl)-2-methyl-1H-indole-5-carboxylate]: the pIC50 in assay [1] was less than 6.52; in assay [2], greater than 6.52; in assay [3], less than 5.52; in assay [4], less than 5.52.
In the case of `Cc1c(-c2cccc(S(=O)(=O)N(C)C)c2)c2cc(S(=O)(=O)N(C)C)ccc2n1C/C(F)=C/CN` [Compound 58, (Z)-1-(4-amino-2-fluorobut-2-en-1-yl)-3-(3-(N,N-dimethylsulfamoyl)phenyl)-N,N,2-trimethyl-1H-indole-5-sulfonamide], the negative-log IC50 (pIC50) is less than 6.52 in assay [1], greater than 6.52 in assay [2], less than 5.52 in assay [3] and less than 5.52 in assay [4].
Turning to `Cc1c(-c2cncc(S(N)(=O)=O)c2)c2cc(Cl)ccc2n1C/C(F)=C/CN` [Compound 83, (Z)-5-(1-(4-amino-2-fluorobut-2-en-1-yl)-5-chloro-2-methyl-1H-indol-3-yl)pyridine-3-sulfonamide], the pIC50 in assay [1] was less than 6.52; in assay [2], greater than 6.52; in assay [3], less than 5.52; in assay [4], less than 5.52.
For the compound `COc1ccc2c(c1)c(-c1cccc(S(=O)(=O)N(C)C)c1)c(C)n2C/C(F)=C/CN` [Compound 49, (Z)-3-(1-(4-amino-2-fluorobut-2-en-1-yl)-5-methoxy-2-methyl-1H-indol-3-yl)-N,N-dimethylbenzenesulfonamide], the pIC50 in assay [1] is less than 6.52; in assay [2], greater than 6.52; in assay [3], less than 5.52; in assay [4] it was less than 5.52.
For the compound `Cc1cc(-c2c(C)n(C/C(F)=C/CN)c3ccc(NS(C)(=O)=O)cc23)cc(C)n1` [Compound 102, (Z)—N-(1-(4-amino-2-fluorobut-2-en-1-yl)-3-(2,6-dimethylpyridin-4-yl)-2-methyl-1H-indol-5-yl)methanesulfonamide Dihydrochloride], the pIC50 in assay [1] is less than 6.52; in assay [2], greater than 6.52; in assay [3], less than 5.52; in assay [4], less than 5.52.
Turning to `Cc1c(-c2cccc(S(=O)(=O)N(C)C)c2)c2nc(N(C)C)ccc2n1C/C(F)=C/CN` [Compound 105, (Z)-3-(1-(4-amino-2-fluorobut-2-en-1-yl)-5-(dimethylamino)-2-methyl-1H-pyrrolo[3,2-b]pyridin-3-yl)-N,N-dimethylbenzenesulfonamide Dihydrochloride], the pIC50 in assay [1] was less than 6.52; in assay [2], greater than 6.52; in assay [3], less than 5.52; in assay [4] it was less than 5.52.
Take `Cc1c(-c2cccc(N(C)S(C)(=O)=O)c2)c2cc(C(=O)N(C)C)ccc2n1C/C(F)=C/CN` [Compound 39, (Z)-1-(4-amino-2-fluorobut-2-en-1-yl)-N,N,2-trimethyl-3-(3-(N-methylmethylsulfonamido)phenyl)-1H-indole-5-carboxamide]: the pIC50 is less than 6.52 in assay [1], greater than 6.52 in assay [2], less than 5.52 in assay [3] and less than 5.52 in assay [4].
`Cc1c(-c2cccc(S(=O)(=O)N(C)C)c2)c2ccc(C(N)=O)cc2n1C/C(F)=C/CN` [Compound 11, (Z)-1-(4-amino-2-fluorobut-2-en-1-yl)-3-(3-(N,N-dimethylsulfamoyl)phenyl)-2-methyl-1H-indole-6-carboxamide]: the pIC50 is less than 6.52 in assay [1], greater than 6.52 in assay [2], less than 5.52 in assay [3] and less than 5.52 in assay [4].
On to `COc1ccc2c(n1)c(-c1cccc(S(=O)(=O)N(C)C)c1)c(C)n2C/C(F)=C/CN` [Compound 61, (Z)-3-(1-(4-amino-2-fluorobut-2-en-1-yl)-5-methoxy-2-methyl-1H-pyrrolo[3,2-b]pyridin-3-yl)-N,N-dimethylbenzenesulfonamide Dihydrochloride], for which the pIC50 in assay [1] was less than 6.52; in assay [2], greater than 6.52; in assay [3], less than 5.52; in assay [4], less than 5.52.
In the case of `Cc1c(-c2ccncc2)c2cc(C(=O)NC(C)(C)C)ccc2n1C/C(F)=C/CN` [Compound 91, (Z)-1-(4-amino-2-fluorobut-2-en-1-yl)-N-(tert-butyl)-2-methyl-3-(pyridin-4-yl)-1H-indole-5-carboxamide], the pIC50 is less than 6.52 in assay [1], greater than 6.52 in assay [2], less than 5.52 in assay [3] and less than 5.52 in assay [4].
`Cc1c(-c2cccc(S(=O)(=O)N(C)C)c2)c2cc(-c3nn[nH]n3)ccc2n1C/C(F)=C/CN` [Compound 29, (Z)-3-(1-(4-amino-2-fluorobut-2-en-l-yl)-2-methyl-5-(2H-tetrazol-5-yl)-1H-indol-3-yl)-N,N-dimethylbenzenesulfonamide, Hydrochloride]: the pIC50 in assay [1] is less than 6.52; in assay [2], greater than 6.52; in assay [3], less than 5.52; in assay [4], less than 5.52.
Take `Cc1c(-c2cccc(S(C)(=O)=O)c2)c2cc(C(=O)N(C)C)ccc2n1C/C(F)=C/CN` [Compound 50, (Z)-1-(4-amino-2-fluorobut-2-en-1-yl)-N,N,2-trimethyl-3-(3-(methylsulfonyl)phenyl)-1H-indole-5-carboxamide]: the pIC50 was less than 6.52 in assay [1], greater than 6.52 in assay [2], less than 5.52 in assay [3] and less than 5.52 in assay [4].
`CCOC(=O)c1ccc2c(c1)c(-c1cc(S(=O)(=O)N(C)C)ccc1C)c(C)n2C/C(F)=C/CN` [Compound 19, (Z)-ethyl 1-(4-amino-2-fluorobut-2-en-1-yl)-3-(5-(N,N-dimethylsulfamoyl)-2-methylphenyl)-2-methyl-1H-indole-5-carboxylate]: the pIC50 in assay [1] is less than 6.52; in assay [2] it was greater than 6.52; in assay [3], less than 5.52; in assay [4] it was less than 5.52.
Consider `Cc1c(-c2cccc(S(=O)(=O)N(C)C)c2)c2cccc(C(=O)O)c2n1C/C(F)=C/CN` [Compound 48, (Z)-1-(4-amino-2-fluorobut-2-en-1-yl)-3-(3-(N,N-dimethylsulfamoyl)phenyl)-2-methyl-1H-indole-7-carboxylic acid], for which the pIC50 is less than 6.52 in assay [1], greater than 6.52 in assay [2], less than 5.52 in assay [3] and less than 5.52 in assay [4].
For the compound `COc1ccc2c(n1)c(-c1cccc(S(C)(=O)=O)c1)c(C)n2C/C(F)=C/CN` [Compound 69, (Z)-3-fluoro-4-(5-methoxy-2-methyl-3-(3-(methylsulfonyl)phenyl)-1H-pyrrolo[3,2-b]pyridin-1-yl)but-2-en-1-amine Dihydrochloride], the pIC50 in assay [1] is less than 6.52; in assay [2], greater than 6.52; in assay [3] it was less than 5.52; in assay [4], less than 5.52.
`Cc1c(-c2cccc(S(=O)(=O)N(C)C)c2)c2cc(C(=O)N(C)C)ccc2n1C/C(F)=C/CN` [Compound 6, (Z)-1-(4-amino-2-fluorobut-2-en-1-yl)-3-(3-(N,N-dimethylsulfamoyl)phenyl)-N,N,2-trimethyl-1H-indole-5-carboxamide]: the pIC50 was less than 6.52 in assay [1], greater than 6.52 in assay [2], less than 5.52 in assay [3] and less than 5.52 in assay [4].
For the compound `Cc1c(-c2cccc(N(C)S(C)(=O)=O)c2)c2cc(C(=O)O)ccc2n1C/C(F)=C/CN` [Compound 38, (Z)-1-(4-amino-2-fluorobut-2-en-1-yl)-2-methyl-3-(3-(N-methylmethylsulfonamido)phenyl)-1H-indole-5-carboxylic acid], the pIC50 in assay [1] is less than 6.52; in assay [2] it was greater than 6.52; in assay [3], less than 5.52; in assay [4], less than 5.52.
On to `Cc1c(-c2cccc(S(=O)(=O)N(C)C)c2)c2cc(C(F)F)ccc2n1C/C(F)=C/CN` [Compound 59, (Z)-3-(1-(4-amino-2-fluorobut-2-en-1-yl)-5-(difluoromethyl)-2-methyl-1H-indol-3-yl)-N,N-dimethylbenzene-sulfonamide], for which the pIC50 in assay [1] was less than 6.52; in assay [2], greater than 6.52; in assay [3], less than 5.52; in assay [4] it was less than 5.52.
For `Cc1ccc2c(n1)c(-c1cccc(S(=O)(=O)N(C)C)c1)c(C)n2C/C(F)=C/CN` [Compound 107, (Z)-3-(1-(4-amino-2-fluorobut-2-en-1-yl)-2,5-dimethyl-1H-pyrrolo[3,2-b]pyridin-3-yl)-N,N-dimethylbenzenesulfonamide Dihydrochloride], the pIC50 in assay [1] was less than 6.52; in assay [2] it was greater than 6.52; in assay [3], less than 5.52; in assay [4], less than 5.52.
